Assays:
[1] = tested on: Human retinal pigment epithelial cells; experiment: Example 3: effect of protection from oxidative stress (CCK8 survival after 300 μM hydrogen peroxide); assay type: cell-based; conditions: compared to the non-treatment condition or arachidonic acid (C20:4n-6) ethyl ester at the same treatment concentration (10 or 30 μM); 24 h pre-incubation, 300 μM hydrogen peroxide 24 h; FIG. 3
Procedure: The medium was removed by suction, and then exchanged for a medium containing 300 μM hydrogen peroxide, followed by incubation at 37° C. and 5% CO2 for 24 hours. CCK8 (DOJINDO LABORATORIES) was added to each well, and the absorbance of the sample at 450 nm after 1.5 hours was measured.

[2] = tested on: Human alveolar epithelial cells; experiment: Example 2: effect of protection from oxidative stress (CCK8 survival after 800 μM hydrogen peroxide); assay type: cell-based; conditions: 24 h pre-incubation, 800 μM hydrogen peroxide 8 h, FIG. 2
Procedure: Human alveolar epithelial cells were seeded on a 96-well microplate at 8×10^3/well, and cultured overnight at 37° C. and 5% CO2. […] The medium was removed by suction, and then exchanged for a medium containing 800 μM hydrogen peroxide, followed by incubation at 37° C. and 5% CO2 for 8 hours. CCK8 (DOJINDO LABORATORIES) was added to each well, and the absorbance of the sample at 450 nm after 1.5 hours was measured. The relative survival rate of each treatment section was calculated, where the absorbance value of a well without hydrogen peroxide treatment was 1. • Test section 1: control • Test section 2: hydrogen peroxide • Test section 3: 10 μM arachidonic acid (C20:4n-6) ethyl ester+hydrogen peroxide • Test section 4: 30 μM arachidonic acid (C20:4n-6) ethyl ester+hydrogen peroxide • Test section 5: 10 μM C32:4n-6 ethyl ester+hydrogen peroxide • Test section 6: 30 μM C32:4n-6 ethyl ester+hydrogen peroxide

[3] = tested on: Human alveolar epithelial cells; conditions: 800 μM hydrogen peroxide for 1 hour, compared to non-treatment section; FIG. 1
[4] = tested on: Human retinal pigment epithelial cells; experiment: Example 4: effect of protection from oxidative stress (CCK8 survival after hydrogen peroxide); assay type: cell-based; conditions: compared to the non-treatment condition or eicosapentaenoic acid (C20:5n-3) ethyl ester at the same treatment concentration (10 or 30 μM); 24 h pre-incubation, hydrogen peroxide 24 h; FIG. 4
Procedure: The medium was removed by suction, and then exchanged for a medium containing […] hydrogen peroxide, followed by incubation at 37° C. and 5% CO2 for 24 hours. CCK8 (DOJINDO LABORATORIES) was added to each well, and the absorbance of the sample at 450 nm after 1.5 hours was measured. The relative survival rate of each treatment section was calculated, where the absorbance value of a well without hydrogen peroxide treatment was 1. • Test section 1: control • Test section 2: hydrogen peroxide • Test section 3: 10 μM eicosapentaenoic acid […] ethyl ester+hydrogen peroxide • Test section 4: 30 μM eicosapentaenoic acid […] ethyl ester+hydrogen peroxide • Test section 5: 10 μM C34:5n-3 ethyl ester+hydrogen peroxide • Test section 6: 30 μM C34:5n-3 ethyl ester+hydrogen peroxide

[5] = compared to the section treated with hydrogen peroxide alone, 10 or 30 μM

In the case of `CCCCC/C=C\C/C=C\C/C=C\C/C=C\CCCCCCCCCCCCCCCC(=O)OCC` [C32:4n-6 ethyl ester], the “relative cell survival rate after hydrogen peroxide treatment” value (from here on “relative cell survival rate”) [1] is reported as “significantly higher”, the “relative cell survival rate” value ([2]; compared to arachidonic acid (C20:4n-6) ethyl ester at the same treatment concentration (10 or 30 μM)) is reported as “significantly higher” and the “relative cell survival rate” value [2, 5] is reported as “significantly higher”.
`OO` [hydrogen peroxide] was tested, and the “relative production amount of ROS (reactive oxygen species)” value [3] was “significantly larger”.
In the case of `CCCCC/C=C\C/C=C\C/C=C\C/C=C\CCCC(=O)OCC` [arachidonic acid (C20:4n-6) ethyl ester, reference compound], the “relative cell survival rate” value [2, 5] is reported as “significantly lower”.
With `CCC=CCC=CCC=CCC=CCC=CCCCCCCCCCCCCCCCCCC(=O)OCC` [C34:5n-3 ethyl ester] the “relative cell survival rate” value [4] was “significantly higher”.

From patent US20250032438A1, “METHOD FOR ALLEVIATING OXIDATIVE STRESS” (Nissui Corporation, priority 2021, published 2025)
